Source: patent US6288100A, “Benzimidazole derivatives” (American Home Products Corporation, priority 1995, dated 2001)
Where a name gives a salt, the structure may show the parent alone.

Tests used:
[1] = Cytotoxicity, modified MTT assay, % viable cells; format: cell-based, porcine; set-up: dose or concentration left out as unconfirmed; conditions: pig, smooth muscle cells, serum-free medium, 37° C.
Protocol: (§1) To distinguish cytotoxicity from the ability of a compound to prevent proliferation, the test compounds were examined using a commercial modification of the MTT assay. Briefly, cells were grown in 24 well plates to 70-80% confluency. The cells were serum deprived for 24-48 hours prior to initiation of the experimental protocol. To insure that the MTT assay monitored toxicity rather than proliferation, the cells were incubated with […] test compound in fresh medium without serum for 24 hours at 37° C. in a humidified CO2 incubator. Upon completion of the compound treatment, MTT indicator dye was added for 4 hours at 37° C. Cells were then solubilized and aliquots from each well were transferred to a 96-well plate for analysis. Absorbance at 570 nm wavelength with a reference wavelength of 630 nm was recorded using an ELISA plate reader.

[2] = tested on: porcine aortic smooth muscle cells; experiment: Porcine smooth muscle cell antiproliferation, PDGF stimulation (3H thymidine incorporation); format: cell-based; conditions: PDGF-stimulated (human recombinant PDGF-AB)
Protocol: (§2) The ability of the compounds of the present invention to inhibit smooth muscle cell proliferation was established using isolated porcine aortic smooth muscle cells in a modification of the procedure of Castellot et al. J. Biol. Chem 257(19) 11256 (1982), as follows:
(§3) Fresh porcine aortas, scrupulously cleansed of fatty tissue, are rinsed in sterile phosphate-buffered saline with 2% antibiotic-antimycotic (100×) liquid (10,000 units of penicillin (base), 10,000 μg of streptomycin (base), and 25 μg of amphotericin B/mL utilizing penicillin G (sodium salt), streptomycin sulfate, and amphotericin B as Fungizone® in 0.85% saline, available from Gibco Laboratories, Grand Island Biological Co., Grand Island, N.Y.). The tissue is then digested in 10-15 mL of an enzyme solution containing collagenase type I, 165 U/mL; elastase type III, 15 U/mL; BSA, 2 mg/mL; and soybean trypsin inhibitor, 0.375 mg/mL, followed by incubation at 37° C. under 5% CO2 atmosphere for 10 to 15 minutes. After this treatment, the outer surface adventitia is removed by peeling with a forceps. The aorta is then longitudinally cut and laid open and the endothelial layer is removed by scraping.
(§4) The medial layer of cells is rinsed in the enzyme solution, and placed in a new 100 mm dish with 10 mL of enzyme solution. The medial layer of cells is minced using a fine pair of scissors and digested for 2-3 hours at 37° C. in 30 mL of fresh enzyme solution. After digestion, the medial tissue is homogenized using a sterile Pasteur pipette with a fire polished tip or an Eppendorf pipetter with a 200-1000 μL sterile pipette tip. The suspension is then centrifuged for 10 minutes at 8000 rpm and the pellet is suspended in 4-6 mL of fresh enzyme solution and plated onto 4-6 100 mm flasks with vented caps. The cells are then allowed to grow to confluence and split using 0.25% trypsin. The cells are evaluated for purity and overall quality using antibody to SMC actin.
(§5) The cells are assayed in early passage (generally passage 3-7) at sub-confluent conditions. Cultures are grown in 16 mm (24 well) multi-well culture dishes in media 199 supplemented with 10% fetal bovine serum and 2% antibiotic/antimycotic. At subconfluence, the cells are placed in a defined serum free, lymphocyte medium (AIM-V; Gibco) for 24-48 hours prior to initiating the experimental protocoL
(§6) The standard test procedure is initiated by addition of the test compound, ^3 H thymidine and serum or a specific growth factor to the serum deprived synchronized cells. Growth factor and serum stimulations are optimized for each cell type. The test compounds are added to each well at 50 fold dilution (20 μL/well) and the plates are incubated for 24-36 hours at 37° C. in 5% CO2 atmosphere. Test compounds are dissolved in 50% ethanol and assayed at 1, 10, and 100 μM. As a control, RG 50872 (Bilder, G. A.; et al., Am. J. Cell Physiol., 1991; 260: C721) is routinely assayed under the conditions of each cell preparation at a concentration of 5 μM.
(§7) At the completion of the experiment, the plates are placed on ice, washed three times with ice cold PBS and incubated in ice cold 10% trichloroacetic acid (TCA) for 30 minutes to remove acid soluble proteins. Each solution is transferred to a scintillation vial containing 0.4N HCl (500 μL/vial to neutralize NaOH) and each well is rinsed two times with water (500 μL) for a total volume of 2 mL/vial.
(§8) Data is quantitated by subjecting the vials to a scintillation counter, in triplicate, for both control and experimental samples. […] Experimental data is obtained from cells maximally stimulated with growth factor or serum and treated with a test compound. (The platelet-derived growth factor used in the assay was human recombinant PDGF-AB purchased from Upstate Biotechnology Inc., Lake Placid, N.Y.). Data is expressed as a percent of control from which IC50 s are determined.

[3] = tested on: porcine aortic smooth muscle cells; experiment: Porcine smooth muscle cell antiproliferation, serum stimulation (3H thymidine incorporation); format: cell-based; conditions: serum-stimulated
Protocol: as §2, §3, §4, §5, §6, §7, §8

[4] = tested on: porcine smooth muscle cells; experiment: Cytotoxicity, modified MTT assay, % viable cells; format: cell-based; set-up: dose or concentration left out as unconfirmed; conditions: serum-free medium, 24 hours, 37° C.
Protocol: as §1

Compound: COc1ccc(Cc2nc3cc(C(=O)c4ccccc4)ccc3[nH]2)cc1OC [Example 12, [2-(3,4-Dimethoxybenzyl)-1H-benzoimidazol-5-yl]-phenyl-methanone]
- viability at 24 h [1]: 100%
- IC50 ([2]; Sus scrofa): 0.081 to 0.14 µM
- IC50 ([3]; Sus scrofa): 7.74 µM

Compound: 4-[5-(Hydroxy-(phenyl)-methyl)-2-propyl -benzoimidazol-1-ylmethyl]-benzoic acid [Example 6]
- Cytotoxicity, % Viable Cells [4]: 85.5%
- IC50 [2]: 11.2 µM
- Porcine Smooth Muscle Cell Antiproliferation, Serum, % Inhibition at 20 μM ([3]; 20 μM): 45.9%

Compound: CCCc1nc2cc(C(=O)c3ccccc3)ccc2n1Cc1ccc(C(=O)OCC)cc1 [Example 2, 4-(5-Benzoyl-2-propyl-benzoimidazol-1-ylmethyl) -benzoic acid ethyl ester]
- viability at 24 h [1]: 100%
- IC50 ([2]; Sus scrofa): 1.17 µM
- IC50 ([3]; Sus scrofa): 1.04 µM

Compound: CCCc1nc2ccc(C(=O)c3ccccc3)cc2n1Cc1ccc(C(=O)OCC)cc1 [Example 3, 4-(6-Benzoyl-2-propyl-benzoimidazol-1-ylmethyl) -benzoic acid ethyl ester]
- viability at 24 h [1]: 100%
- IC50 ([2]; Sus scrofa): 1.23 µM
- IC50 ([3]; Sus scrofa): 1.58 µM

Compound: O=C(c1ccccc1)c1ccc2[nH]c(-c3ccc(OC(F)(F)F)cc3)nc2c1 [Example 11, Phenyl-[2-(4-trifluoromethoxy-phenyl)-1H -benzoimidazol-5-yl]methanone]
- viability at 24 h [1]: 100%
- IC50 ([2]; Sus scrofa): 7.7 µM
- IC50 ([3]; Sus scrofa): 1.82 µM

Compound: CCCc1nc2cc(C(=O)c3ccccc3)ccc2n1Cc1ccc(Cl)c(Cl)c1 [Example 8, [1-(3,4-Dichloro-benzyl)-2-propyl-1H-benzoimidazol-5-yl]-phenyl-methanone]
- viability at 24 h [1]: 100%
- IC50 ([2]; Sus scrofa): 0.096 to 0.465 µM
- inhibition at 20 µM ([3]; Sus scrofa, 20 μM): 90%

Compound: CCCc1nc2cc(C(=O)c3ccccc3)ccc2[nH]1 [Example 1, Phenyl-(2-propyl-1H-benzoimidazol-5-yl)-methanone]
- viability at 24 h [1]: 80%
- IC50 ([2]; Sus scrofa): 12.9 µM
- inhibition at 20 µM ([3]; Sus scrofa, 20 μM): 39.4%

Compound: CCCc1nc2cc(C(O)c3ccccc3)ccc2n1Cc1ccc(C(=O)O)cc1 (stereo not drawn) [Example 7, 4-[5-(Hydroxy-(phenyl)-methyl)-2-propyl-benzoimidazol-1-ylmethyl]-benzoic acid hydrochloride]
- viability at 24 h [1]: 85%
- IC50 ([2]; Sus scrofa): 17.6 µM
- inhibition at 10 µM ([3]; Sus scrofa, 10 μM): 36%

Compound: CCCCCCOc1ccc(-c2nc3cc(C(=O)c4ccccc4)ccc3[nH]2)cc1OC [Example 10, [2-(4-Hexyloxy-3-methoxy-phenyl)-1H benzoimidazol-5-yl]phenyl-methanone]
- viability at 24 h [1]: 100%
- IC50 ([2]; Sus scrofa): 0.762 µM
- IC50 ([3]; Sus scrofa): 13.5 µM

Compound: CCCc1nc2ccc(C(=O)c3ccccc3)cc2n1Cc1ccc(C(=O)O)cc1 [Example 4, 4-(6-Benzoyl-2-propyl-benzoimidazol-1-ylmethyl) benzoic acid]
- viability at 24 h [1]: 100%
- Porcine Smooth Muscle Cell Antiproliferation, PDGF, % Inhibition (concentration not given) ([2]; concentration not given): 0%
- inhibition at 20 µM ([3]; Sus scrofa, 20 μM): 61.8%

Compound: CCCc1nc2cc(C(=O)c3ccccc3)ccc2n1Cc1ccc(C(=O)O)cc1 [Example 5, 4-(5-Benzoyl-2-propyl-benzoimidazol-1-ylmethyl)-benzoic acid]
- viability at 24 h [1]: 78%
- IC50 ([2]; Sus scrofa): 15.9 µM
- inhibition at 20 µM ([3]; Sus scrofa, 20 μM): 41%

Compound: COc1cc(-c2nc3cc(C(=O)c4ccccc4)ccc3[nH]2)ccc1O [Example 9, [2-(4-Hydroxy-3-methoxy-phenyl)1H-benzoimidazol-5-yl]-phenyl-methanone]
- viability at 24 h [1]: 100%
- IC50 ([2]; Sus scrofa): 3.74 to 4.14 µM
- IC50 ([3]; Sus scrofa): 8.03 to 11.4 µM
